From the NIST ThermoML archive (doi:10.1016/j.jct.2008.05.005)
Numbers after ± are expanded uncertainties.

Assay: xn = mol fraction of the nth substance listed
Details: Liquid, Vibrating tube method

CCCCn1cc[n+](C)c1.F[B-](F)(F)F [1-butyl-3-methylimidazolium tetrafluoroborate] + CO
mass density [kg/m3]
Details	298.15 K	323.15 K
210 kPa, x1 = 0.9102	1203.93 ± 0.44	–
230 kPa, x1 = 0.9102	–	1185.2 ± 0.43
240 kPa, x1 = 0.0087	–	781 ± 0.49
240 kPa, x1 = 0.2626	1065.61 ± 0.32	–
240 kPa, x1 = 0.7501	–	1168.14 ± 0.38
250 kPa, x1 = 0.4988	1144.91 ± 0.34	–
260 kPa, x1 = 0.1302	–	952.36 ± 0.35
300 kPa, x1 = 0.1302	975.12 ± 0.35	–
310 kPa, x1 = 0.7501	1186.96 ± 0.39	–
380 kPa, x1 = 0.0087	804.76 ± 0.48	–
400 kPa, x1 = 0.0433	867.22 ± 0.42	–
440 kPa, x1 = 0.0433	–	844.94 ± 0.41
670 kPa, x1 = 0.2626	–	1046.2 ± 0.32
780 kPa, x1 = 0.4988	–	1126.41 ± 0.33
4380 kPa, x1 = 0.0087	808.51 ± 0.48	–
5040 kPa, x1 = 0.9102	1206.16 ± 0.47	1187.61 ± 0.45
5070 kPa, x1 = 0.7501	–	1170.7 ± 0.4
5080 kPa, x1 = 0.7501	1189.2 ± 0.41	–
5210 kPa, x1 = 0.2626	1068.88 ± 0.32	–
5270 kPa, x1 = 0.0433	871.22 ± 0.4	–
5310 kPa, x1 = 0.4988	1147.71 ± 0.35	1128.87 ± 0.34
5320 kPa, x1 = 0.2626	–	1049.53 ± 0.32
5430 kPa, x1 = 0.0433	–	849.82 ± 0.48
5440 kPa, x1 = 0.0087	–	786.6 ± 0.5
5890 kPa, x1 = 0.1302	979.15 ± 0.35	–
6310 kPa, x1 = 0.1302	–	957.29 ± 0.32
10030 kPa, x1 = 0.7501	1191.5 ± 0.43	–
10030 kPa, x1 = 0.9102	1208.41 ± 0.5	1190.07 ± 0.48
10050 kPa, x1 = 0.4988	1150.25 ± 0.36	–
10080 kPa, x1 = 0.2626	1071.94 ± 0.33	–
10260 kPa, x1 = 0.0433	875.17 ± 0.42	–
10840 kPa, x1 = 0.1302	982.54 ± 0.35	–
10910 kPa, x1 = 0.0087	814.38 ± 0.49	–
15190 kPa, x1 = 0.0433	878.92 ± 0.42	–
15310 kPa, x1 = 0.9102	1210.74 ± 0.53	–
15330 kPa, x1 = 0.0087	818.18 ± 0.5	–
15380 kPa, x1 = 0.2626	1075.12 ± 0.33	–
15420 kPa, x1 = 0.7501	1193.96 ± 0.46	–
15620 kPa, x1 = 0.4988	1153.13 ± 0.38	–
15680 kPa, x1 = 0.1302	985.71 ± 0.35	–
19940 kPa, x1 = 0.0087	821.99 ± 0.51	–
20020 kPa, x1 = 0.0433	882.44 ± 0.49	–
20070 kPa, x1 = 0.9102	1212.8 ± 0.56	–
20140 kPa, x1 = 0.4988	1155.39 ± 0.4	–
20750 kPa, x1 = 0.2626	1078.17 ± 0.34	–
20890 kPa, x1 = 0.7501	1196.42 ± 0.49	–
20920 kPa, x1 = 0.1302	988.97 ± 0.35	–
25090 kPa, x1 = 0.2626	1080.52 ± 0.34	–
25120 kPa, x1 = 0.1302	991.46 ± 0.35	–
25410 kPa, x1 = 0.4988	1157.92 ± 0.42	–
25410 kPa, x1 = 0.9102	1215.05 ± 0.6	–
25420 kPa, x1 = 0.0433	886.2 ± 0.43	–
25680 kPa, x1 = 0.7501	1198.54 ± 0.52	–
25770 kPa, x1 = 0.0087	826.59 ± 0.52	–
30080 kPa, x1 = 0.0433	889.29 ± 0.49	–
30080 kPa, x1 = 0.7501	1200.46 ± 0.55	–
30090 kPa, x1 = 0.9102	1216.97 ± 0.63	–
30120 kPa, x1 = 0.2626	1083.1 ± 0.35	–
30410 kPa, x1 = 0.4988	1160.24 ± 0.44	–
30520 kPa, x1 = 0.0087	830.16 ± 0.53	–
31070 kPa, x1 = 0.1302	994.78 ± 0.35	–
35070 kPa, x1 = 0.2626	1085.49 ± 0.36	–
35290 kPa, x1 = 0.7501	1202.69 ± 0.58	–
35420 kPa, x1 = 0.0433	892.67 ± 0.44	–
35560 kPa, x1 = 0.1302	997.14 ± 0.35	–
35740 kPa, x1 = 0.0087	833.9 ± 0.54	–
35740 kPa, x1 = 0.4988	1162.61 ± 0.47	–
39560 kPa, x1 = 0.0433	895.16 ± 0.45	–
39780 kPa, x1 = 0.4988	1164.34 ± 0.49	–
39880 kPa, x1 = 0.0087	836.72 ± 0.55	–
39910 kPa, x1 = 0.7501	1204.65 ± 0.62	–
39910 kPa, x1 = 0.9102	1220.87 ± 0.71	–
39930 kPa, x1 = 0.9102	1220.88 ± 0.71	–
39960 kPa, x1 = 0.2626	1087.71 ± 0.37	–
40120 kPa, x1 = 0.1302	999.4 ± 0.35	–
